Data taken from PubChem BioAssay AID504678 (The Scripps Research Institute Molecular Screening Center, 2011).
Activity calls are given as the source filed them.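 The calls were made as follows: active = compound whose IC50 against bacterial viability is at or below 10 µM; inactive = IC50 above 10 µM.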

test system: E. coli V3065 growth, OD600 absorbance; assay: E. coli V3065 growth inhibition, dose response, counter-screen for AddAB recombination inhibitor project, absorbance, OD600 (AID 504678)

Row | Structure (SMILES) | IC50
1 | C=CCn1c(Sc2ncc([N+](=O)[O-])s2)n[nH]c1=O | 20.4 µM (inactive)
2 | O=C(Nc1cccc(NC(=O)c2ccccc2Cl)c1)c1ccc([N+](=O)[O-])o1 | > 119 µM (inactive)
3 | O=C(Nc1ccc(N2CCOCC2)cc1)c1ccc([N+](=O)[O-])o1 | 17.3 µM (inactive)
4 | CC(=O)Nc1ccc2nc(NC(=O)c3ccc([N+](=O)[O-])o3)sc2c1 | > 119 µM (inactive)
5 | NC(=O)c1ccsc1NC(=O)COC(=O)c1ccc([N+](=O)[O-])o1 | > 119 µM (inactive)
6 | Cc1cccnc1NC(=O)c1ccc([N+](=O)[O-])o1 | 39.5 µM (inactive)
7 | CCn1cc(C(=O)O)c(=O)c2cnc(N3CCN(C(=S)Nc4ccccc4C(F)(F)F)CC3)nc21 | > 39.5 µM (inactive)
8 | N#Cc1c(NC(=O)c2ccc([N+](=O)[O-])o2)sc2c1CCC2 | > 119 µM (inactive)
9 | O=C(OCC(=O)c1cccs1)c1ccc([N+](=O)[O-])o1 | > 119 µM (inactive)
10 | Cc1ccc2nc(/C(C#N)=C\c3ccc([N+](=O)[O-])o3)[nH]c2c1 | > 119 µM (inactive)
11 | O=C(Nc1ncccn1)c1ccc([N+](=O)[O-])o1 | 33 µM (inactive)
12 | O=C(NCc1cccnc1)c1ccc([N+](=O)[O-])o1 | > 39.5 µM (inactive)
